Assays:
DU145 (prostate cancer) = assay: Effect of compounds on tumor cell lines (assay of Latham et al.), DU145; type: cell-based; settings: DU145 cells, 96 hours after treatment, 1 μM to 100 μM; read-out: DU 145 potency (IC50)
Procedure, shortened: (§1)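 After 96 h of exposure to compound (1–100 μM in DMSO; one compound at 0.1–100 μM), effects were scored by inverted-microscope inspection, with trypan blue viable counts by hemacytometer when required. Cells were seeded at 2.5×10^4 per well and dosed 24 h after plating.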

[1] = test system: K562 (chronic myelogenous leukaemia); assay: Effect of compounds on tumor cell lines (assay of Latham et al.), K562; type: cell-based; settings: K562 cells, 96 hours after treatment, 1 μM to 100 μM; read-out: K 562 potency (IC50)
Procedure, shortened: as §1

| SMILES | IC50 (DU145 (prostate cancer)) | IC50 [1] |
| --- | --- | --- |
| Cc1ccc(CSC(=Cc2ccc(Cl)c([N+](=O)[O-])c2)C(=O)c2ccc(C(=O)O)cc2)cc1 [Example 287] | 1 to 10 µM | ≤ 1 µM |
| Cc1ccc(CSC(=Cc2ccc(Cl)cc2)C(=O)c2ccc(Cl)cc2)cc1 [Example 288] | 10 to 25 µM | 1 to 10 µM |
| CCOc1ccc(C=C(SCc2ccc(C)cc2)C(=O)c2ccc(Cl)cc2)cc1OC [Example 289] | 25 to 50 µM | 25 to 50 µM |
| Cc1ccc(CSC(=Cc2ccc(F)cc2C(F)(F)F)C(=O)c2ccc(Cl)cc2)cc1 [Example 290] | 50 to 100 µM | 50 to 100 µM |
| Cc1ccc(CSC(=Cc2ccc(F)c(C)c2)C(=O)c2ccc(Cl)cc2)cc1 [Example 291] | 25 to 50 µM | 10 to 25 µM |
| Cc1ccc(CSC(=Cc2ccc(O)cc2)C(=O)c2ccc(Cl)cc2)cc1 [Example 292] | 10 to 25 µM | 1 to 10 µM |
| CSc1ccc(C=C(SCc2ccc(C)cc2)C(=O)c2ccc(Br)cc2)cc1 [Example 293] | > 100 µM | 25 to 50 µM |
| CSc1ccc(C=C(SCc2ccc(C)cc2)C(=O)c2ccc(Cl)cc2)cc1 [Example 294] | 25 to 50 µM | 10 to 25 µM |
| Cc1ccc(CSC(=Cc2c[nH]c3ccc(Br)cc23)C(=O)c2ccc(Cl)cc2)cc1 [Example 295] | 1 to 10 µM | 1 to 10 µM |
| Cc1ccc(CSC(=Cc2c[nH]c3ccc(Cl)cc23)C(=O)c2ccc(Cl)cc2)cc1 [Example 296] | 1 to 10 µM | 1 to 10 µM |
| Cc1ccc(CSC(=Cc2ccc(C)s2)C(=O)c2ccc(Cl)cc2)cc1 [Example 298] | 50 to 100 µM | 50 to 100 µM |
| O=C(O)c1ccc(C(=O)C(=Cc2ccc(Br)c([N+](=O)[O-])c2)SCc2ccc(Cl)cc2Cl)cc1 [Example 299] | 1 to 10 µM | ≤ 1 µM |
| O=C(O)c1ccc(C(=O)C(=Cc2ccc(Cl)c([N+](=O)[O-])c2)SCc2ccc(Cl)cc2Cl)cc1 [Example 300] | 1 to 10 µM | ≤ 1 µM |
| O=C(O)c1ccc(C(=O)C(=Cc2ccc(F)c([N+](=O)[O-])c2)SCc2ccc(Cl)cc2Cl)cc1 [Example 301] | 1 to 10 µM | ≤ 1 µM |
| O=C(O)c1ccc(C(=O)C(=Cc2ccc(Br)c([N+](=O)[O-])c2)SCc2ccccc2Cl)cc1 [Example 302] | 1 to 10 µM | 1 to 10 µM |
| O=C(O)c1ccc(C(=O)C(=Cc2ccc(F)c([N+](=O)[O-])c2)SCc2ccccc2Cl)cc1 [Example 303] | 1 to 10 µM | 1 to 10 µM |
| O=C(O)c1ccc(C(=O)C(=Cc2ccc(Cl)c([N+](=O)[O-])c2)SCc2ccccc2F)cc1 [Example 304] | 1 to 10 µM | ≤ 1 µM |
| COc1cc(OC)c(OC)cc1C=C(SCc1ccc(Br)cc1)C(=O)c1ccc([N+](=O)[O-])cc1 [Example 305] | 10 to 25 µM | 10 to 25 µM |
| O=C(O)c1ccc(C(=O)C(=Cc2ccccc2F)SCc2ccc(Br)cc2)cc1 [Example 306] | 10 to 25 µM | 10 to 25 µM |
| CC1=CC(=O)C(C)=C(C(C)(C)CC(=O)Oc2cc(C=C(SCc3ccc(Br)cc3)C(=O)c3ccc(Br)cc3)ccc2[N+](=O)[O-])C1=O [Example 307] | 1 to 10 µM | 1 to 10 µM |

| SMILES | IC50 (DU145 (prostate cancer)) | IC50 [1] |
| --- | --- | --- |
| CN1CCN(c2ccc(C=C(SCc3ccc(Br)cc3)C(=O)c3ccc(C(=O)O)cc3)cc2[N+](=O)[O-])CC1 [Example 308] | 10 to 25 µM | 1 to 10 µM |
| CCOC(=O)c1c(C)[nH]c(C=C(SCc2ccc(Br)cc2)C(=O)c2ccc(SCc3ccc(Br)cc3)c([N+](=O)[O-])c2)c1C [Example 309] | > 100 µM | > 100 µM |
| O=C(C(=Cc1ccc(F)c([N+](=O)[O-])c1)SCc1ccc(Br)cc1)c1c(F)c(F)c(F)c(F)c1F [Example 310] | 1 to 10 µM | 1 to 10 µM |
| CN1CCN(CCNC(=O)c2ccc(C(=O)C(=Cc3ccc(F)c([N+](=O)[O-])c3)SCc3ccc(Br)cc3)cc2)CC1 [Example 311] | 1 to 10 µM | ≤ 1 µM |
| O=C(NCCN1CCOCC1)c1ccc(C(=O)C(=Cc2ccc(F)c([N+](=O)[O-])c2)SCc2ccc(Br)cc2)cc1 [Example 312] | 1 to 10 µM | 1 to 10 µM |
| CCN(CC)CCNC(=O)c1ccc(C(=O)C(=Cc2ccc(F)c([N+](=O)[O-])c2)SCc2ccc(Br)cc2)cc1 [Example 313] | 1 to 10 µM | ≤ 1 µM |
| CN1CCN(CCCNC(=O)c2ccc(C(=O)C(=Cc3ccc(F)c([N+](=O)[O-])c3)SCc3ccc(Br)cc3)cc2)CC1 [Example 314] | 1 to 10 µM | 1 to 10 µM |
| O=C(C(=Cc1ccc(F)c([N+](=O)[O-])c1)SCc1ccc(Br)cc1)c1ccc(C(=O)N2CCN(c3ccc(C(F)(F)F)cn3)CC2)cc1 [Example 315] | 1 to 10 µM | 1 to 10 µM |
| O=C(C(=Cc1ccc(F)c([N+](=O)[O-])c1)SCc1ccc(Br)cc1)c1ccc(C(=O)N2CCN(CCO)CC2)cc1 [Example 316] | ≤ 1 µM | ≤ 1 µM |
| O=C(C(=Cc1ccc(F)c([N+](=O)[O-])c1)SCc1ccc(Br)cc1)c1ccc(Cl)c([N+](=O)[O-])c1 [Example 317] | > 100 µM | > 100 µM |
| O=C(C(=Cc1ccc(F)c([N+](=O)[O-])c1)SCc1ccc(Br)cc1)c1ccc(F)cc1 [Example 318] | ≤ 1 µM | ≤ 1 µM |
| O=C(C(=Cc1ccc(F)cc1)SCc1ccc(Br)cc1)c1ccc(SCc2ccc(Br)cc2)c([N+](=O)[O-])c1 [Example 319] | > 100 µM | > 100 µM |
| O=C(C(=Cc1ccc([N+](=O)[O-])cc1)SCc1ccc(Br)cc1)c1ccc(Br)cc1 [Example 320] | 1 to 10 µM | 1 to 10 µM |
| O=C(C(=Cc1cccnc1)SCc1ccc(Cl)cc1)c1ccc(Br)cc1 [Example 321] | 1 to 10 µM | 1 to 10 µM |
| O=C(C(=Cc1cccnc1)SCc1ccc(Cl)cc1)c1ccc(Cl)cc1 [Example 322] | 1 to 10 µM | 1 to 10 µM |
| O=C(O)c1ccc(C=C(SCc2ccc(Cl)cc2)C(=O)c2ccc(C(=O)O)cc2)cc1 [Example 323] | > 100 µM | > 100 µM |
| O=C(C(=Cc1ccc(Cl)cc1)SCc1ccc(Cl)cc1)c1ccc(Cl)cc1 [Example 324] | 10 to 25 µM | 1 to 10 µM |
| O=C(C(=Cc1ccc([N+](=O)[O-])cc1)SCc1ccc(Cl)cc1)c1ccc(Cl)cc1 [Example 326] | 1 to 10 µM | 1 to 10 µM |
| O=C(C(=Cc1ccc(C(F)(F)F)cc1)SCc1ccc(Cl)cc1)c1ccc(Cl)cc1 [Example 327] | 1 to 10 µM | 1 to 10 µM |
| O=C(O)c1ccc(C(=O)C(=Cc2ccc(N3CCN(Cc4ccccc4)CC3)c([N+](=O)[O-])c2)SCc2ccc(F)cc2)cc1 [Example 328] | 1 to 10 µM | 1 to 10 µM |

| SMILES | IC50 (DU145 (prostate cancer)) | IC50 [1] |
| --- | --- | --- |
| CN1CCN(CCNc2ccc(C=C(SCc3ccc(F)cc3)C(=O)c3ccc(F)cc3)cc2[N+](=O)[O-])CC1 [Example 329] | 1 to 10 µM | ≤ 1 µM |
| O=C(C(=Cc1ccc(N2CCN(CCO)CC2)c([N+](=O)[O-])c1)SCc1ccc(F)cc1)c1ccc(F)cc1 [Example 330] | 1 to 10 µM | ≤ 1 µM |
| O=C(C(=Cc1ccc(C(=O)N2CCN(CCO)CC2)cc1)SCc1ccc(F)cc1)c1ccc(F)c([N+](=O)[O-])c1 [Example 331] | 1 to 10 µM | ≤ 1 µM |
| CC(=O)Nc1ccc(/C=C(/SCc2ccc(F)cc2)C(=O)c2ccc(C(=O)O)cc2)cc1[N+](=O)[O-] [Example 332] | 10 to 25 µM | 1 to 10 µM |
| Nc1ccc(/C=C(/SCc2ccc(F)cc2)C(=O)c2ccc(C(=O)O)cc2)cc1[N+](=O)[O-] [Example 333] | 10 to 25 µM | 10 to 25 µM |
| O=C(O)c1ccc(C(=O)/C(=C\c2ccc(Br)cc2)SCc2ccc(F)cc2)cc1 [Example 334] | > 100 µM | > 100 µM |
| O=C(/C(=C\c1ccc(F)c([N+](=O)[O-])c1)SCc1ccc(F)cc1)c1ccc(SCc2ccc(F)cc2)c([N+](=O)[O-])c1 [Example 335] | 10 to 25 µM | 1 to 10 µM |
| Cc1ccc(S(=O)(=O)Oc2ccc(C(=O)/C(=C\c3ccc(F)c([N+](=O)[O-])c3)SCc3ccc(F)cc3)cc2)cc1 [Example 336] | 1 to 10 µM | 1 to 10 µM |
| CN1CCN(CCNC(=O)c2ccc(C(=O)/C(=C\c3ccc(F)c([N+](=O)[O-])c3)SCc3ccc(F)cc3)cc2)CC1 [Example 337] | 10 to 25 µM | 10 to 25 µM |
| CCN(CC)CCOc1ccc(C(=O)/C(=C\c2ccc(F)c([N+](=O)[O-])c2)SCc2ccc(F)cc2)cc1 [Example 338] | 1 to 10 µM | ≤ 1 µM |
| CC1=CC(=O)C(C)=C(C(C)(C)CC(=O)Oc2ccc(C(=O)/C(=C\c3ccc(F)c([N+](=O)[O-])c3)SCc3ccc(F)cc3)cc2)C1=O [Example 339] | 1 to 10 µM | 1 to 10 µM |
| O=C(/C(=C\c1ccc(F)c([N+](=O)[O-])c1)SCc1ccc(F)cc1)c1ccc(OCCCN2CCOCC2)cc1 [Example 340] | 1 to 10 µM | 1 to 10 µM |
| O=C(/C(=C\c1ccc(F)c([N+](=O)[O-])c1)SCc1ccc(F)cc1)c1ccc(F)cc1 [Example 341] | 1 to 10 µM | ≤ 1 µM |
| O=C(/C(=C\c1ccc(F)c([N+](=O)[O-])c1)SCc1ccc(F)cc1)c1ccc(O)cc1 [Example 342] | ≤ 1 µM | ≤ 1 µM |
| NS(=O)(=O)c1ccc(C(=O)/C(=C\c2ccc(F)c([N+](=O)[O-])c2)SCc2ccc(F)cc2)cc1 [Example 343] | 1 to 10 µM | 1 to 10 µM |
| O=C(/C(=C\c1ccc(F)c([N+](=O)[O-])c1)SCc1ccc(F)cc1)c1ccccc1 [Example 344] | 1 to 10 µM | ≤ 1 µM |
| COc1ccc(CS/C(=C/c2ccc(F)cc2)C(=O)c2ccc(Cl)cc2)cc1 [Example 345] | 10 to 25 µM | 1 to 10 µM |
| COc1ccc(/C=C(/SCc2ccc(OC)cc2)C(=O)c2ccc(Cl)cc2)cc1 [Example 346] | 10 to 25 µM | 1 to 10 µM |
